Source: US11644466B2, “Methods for treating, preventing and predicting risk of developing breast cancer” (Dana-Farber Cancer Institute, Inc., priority 2012, dated 2023)
Entries after “also recorded” stand apart in the source; their conditions may differ.

Tested on: normal human breast tissues (breast epithelial cells)
Test: Tissue explant (tissue slice) culture of normal breast tissue with pathway inhibitors, hormones or tamoxifen: frequency of BrdU+, Ki67+ and p27+ cells
Assay type: cell-based
Conditions: for frequency (numbers) of p27+ cells: normal breast tissue explant / tissue slice culture with inhibitor or tamoxifen, 8-10 days, FIG. 24, FIG. 26C; for number of cells incorporating BrdU: BrdU pulse 5 hrs
[1] = normal breast tissue explant culture with inhibitor for 8-10 days, versus control, FIG. 24

Experimental: The multicolor immunofluorescence for p27 and Ki67 was performed by incubating the samples with monoclonal antibody anti-p27 (1:100 dilution) and polyclonal antibody anti-Ki67 (1:50 dilution) for one hour at room temperature followed by goat anti-mouse IgG1 Alexa 555-conjugated (Invitrogen, 1:100 dilution, for detection of p27) and goat anti-rabbit Alexa 488-conjugated (Invitrogen, 1:100 dilution, for detection of Ki67) for 30 minutes at room temperature. Multicolor immunofluorescence for pSMAD2 (1:50 dilution), pEGFR (1:50 dilution) and Axin2 (1:20 dilution) were performed by incubation for 2 h at room temperature or overnight at 4° C. followed by secondary antibody Rabbit Alexa 488 conjugated (Invitrogen, 1:100 dilution for pSMAD2 and pEGFR) or mouse IgG1 Alexa-488 conjugated (Invitrogen 1:100 dilution) for Axin2 for 30 minutes at room temperature.
Scoring for the expression of each marker was done as follows: p27 fluorescence intensity was scored in the nuclei of 20 randomly selected cells using the ImageJ 1.43r software; Sox17 and COX2 expression was inferred by the combination of two variables: 1) the percentage cells expressing each marker, and 2) the intensity of each marker transformed into a categorical variable based on 0 no expression, 1 weak expression, 2 moderate expression and 3 high expression; the percentage of p27+, Ki67+ and BrdU+ cells was estimated by counting an average of 1000 cells/sample in the case of the mammary epithelium for premenopausal, postmenopausal and high-low density cases, and an average of 2,000 cells in the case of the tissue slices cultures. % of pSMAD2+ cells was estimated by counting an average of 600 cells/sample. For pEGFR and Axin2 fluorescence intensity measurement, mean fluorescence intensity was measured using Image J 1.43r software by counting an average of 600 cells/sample corrected by area and subtracting the average of background fluorescence intensity. […] For p27 and AR staining, p27 (1:100 dilution and AR (1:30 dilution) antibodies were incubated overnight at 40 C followed by incubation at RT for 1 h with subsequent staining by goat anti-mouse IgG1 Alexa 555-conjugated (Invitrogen, 1:100 dilution, for detection of p27) and anti-rabbit IgG Alexa 488-conjugated (Invitrogen, 1:80 dilution). Percentage of p27+, AR+, ER+ cells was estimated by counting 500-1000 cells/sample. Nuclear staining with DAPI and multiple fluorescence images from each section were acquired with 40× plan apo objective, following procedure described above.
Normal human breast tissues were collected from reduction mammoplasties, transported in ice-cold DMEM-F12 medium, and processed within 24 hrs. For organ cultures, thin (˜1 mm thick) slices of tissue were cut from epithelium-enriched areas and cultured for 8 days in 6-well plates using co-culture inserts to optimize the tissue/medium contact surface and changing medium (2 ml/well) every 24 hrs. […] Following 8 days of culture, labeled tissue slices were pulse with bromo-deoxy-uridine (30 μM final concentration) for 5 hrs before fixing the tissue in buffered formalin at room temperature for 24 hrs followed by embedding in paraffin. Experiments were performed in triplicates using tissue from different regions of the same breast, uncultured tissue and tissue cultured without any drugs as controls.

| SMILES | numbers of p27+ cells (tissue slices treated with concentrations of estrogen present in follicular phase (0.5 μM of estradiol for 8 days), FIG. 26B) | frequency (numbers) of p27+ cells | number of cells incorporating BrdU [1] | fraction of Ki67+ cells [1] |
| --- | --- | --- | --- | --- |
| C[C@]12CC[C@@H]3c4ccc(O)cc4CC[C@H]3[C@@H]1CC[C@@H]2O [estrogen, estradiol] | high | – | – | – |
| c1ccc(-c2nn3c(c2-c2ccnc4cc(OCCN5CCOCC5)ccc24)CCC3)nc1 [TGFBR inhibitor, LY2109761] | – | most pronouncedly decreased; also recorded: decreased | opposite effect | – |
| CC/C(=C(\c1ccccc1)c1ccc(OCCN(C)C)cc1)c1ccccc1 [tamoxifen] | – | high | – | – |
| COc1cc([C@@H]2c3cc4c(cc3[C@H](O)[C@H]3COC(=O)[C@@H]23)OCO4)cc(OC)c1OC [IGFR, picropodophylotoxin] | – | most pronouncedly decreased; also recorded: decreased | significantly (p<0.05) decreased | – |
| CC1=C2C[C@H]3[C@@H](CC=C4C[C@@H](O)CC[C@@]43C)[C@@H]2CC[C@]12O[C@@H]1C[C@H](C)CN[C@H]1[C@H]2C [Hh, cyclopamine] | – | – | significantly (p<0.05) decreased | – |
| COc1cc2ncnc(Nc3cccc(Cl)c3)c2cc1OC [EGFR, tyrphostin AG1478] | – | – | significantly (p<0.05) decreased | decreased |
